Source: ChEMBL document CHEMBL1201862, “PubChem BioAssay data set” (2004)
Active and inactive are the calls of the source.

Key:
[1] = test system: Escherichia coli; experiment: microbe, parasite or virus in culture
[2] = Luminescence Cell-Based Dose Retest to Confirm Inhibitors of Cancer Stem Cells. [Related pubchem assays (depositor defined):AID2717, AID2721]; assay type: functional; details: Homo sapiens
[3] = cytotoxicity in HMLE control line with eGFP shRNA, dose response, counter-screen for HMLE_sh_ECad selective toxicity project, cell-based, HMLE_sh_eGFP, luminescence (AID 463074); assay type: functional, Homo sapiens;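 also: HMLE human mammary epithelial cells expressing control shRNA against eGFP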
[4] = test system: Vero; experiment: cells; assay type: functional, cell-based; details: Chlorocebus sabaeus
[5] = test system: Escherichia coli; experiment: microbe, parasite or virus in culture; remark: listed apart in the source
[6] = cytotoxicity in HEK-293T NF-kB-Luc cells, dose response, cytotoxicity control for B/T-cell NF-kB inhibitor project, cell-based, uHTS hits (AID 489019); assay type: functional;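 also: IC50 reflects cytotoxicity as loss of cell viability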
[7] = test system: Jurkat; experiment: antigen receptor-induced NF-kB inhibitors, dose response, Jurkat, luciferase reporter, luminescence, B- and T-cell (AID 489004); assay type: functional, cell-based; details: Homo sapiens;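 also: NF-kB luciferase reporter Jurkat cells stimulated with PMA plus ionomycin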
[8] = test system: Vero; experiment: Vero cell cytotoxicity, cytotoxicity control for flavivirus capping enzyme inhibitors (AID 588742); assay type: functional; details: Chlorocebus sabaeus
[9] = test system: HEK293; experiment: NOD2 signaling inhibitors in MDP-stimulated cells, cell-based, uHTS, luminescence (AID 2001); assay type: functional; details: Homo sapiens
[10] = molecular target: Photoreceptor-specific nuclear receptor (Homo sapiens, UniProt Q9Y5X4); assay type: functional, cell-based;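 also: CHO-S cells with Gal4-NCOR and VP16-NR2E3 two-hybrid luciferase reporter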
[11] = test system: HEK293; experiment: cells; assay type: functional, cell-based; details: Homo sapiens
[12] = test system: HEK293; experiment: cells; assay type: functional, cell-based; details: Homo sapiens; remark: listed apart in the source
[13] = molecular target: Genome polyprotein (dengue virus type 2, UniProt P29990); experiment: Dengue-2 NS5 methyltransferase inhibitors, primary screen, biochemical, confirmation dose response (AID 588689); assay type: functional
[14] = test system: HEK293; experiment: NOD1 signaling inhibitors, primary screen, cell-based, luminescence, uHTS (AID 1578); assay type: functional; details: Homo sapiens

Genome polyprotein, sequence (P29990 2492-3391 limits assumed): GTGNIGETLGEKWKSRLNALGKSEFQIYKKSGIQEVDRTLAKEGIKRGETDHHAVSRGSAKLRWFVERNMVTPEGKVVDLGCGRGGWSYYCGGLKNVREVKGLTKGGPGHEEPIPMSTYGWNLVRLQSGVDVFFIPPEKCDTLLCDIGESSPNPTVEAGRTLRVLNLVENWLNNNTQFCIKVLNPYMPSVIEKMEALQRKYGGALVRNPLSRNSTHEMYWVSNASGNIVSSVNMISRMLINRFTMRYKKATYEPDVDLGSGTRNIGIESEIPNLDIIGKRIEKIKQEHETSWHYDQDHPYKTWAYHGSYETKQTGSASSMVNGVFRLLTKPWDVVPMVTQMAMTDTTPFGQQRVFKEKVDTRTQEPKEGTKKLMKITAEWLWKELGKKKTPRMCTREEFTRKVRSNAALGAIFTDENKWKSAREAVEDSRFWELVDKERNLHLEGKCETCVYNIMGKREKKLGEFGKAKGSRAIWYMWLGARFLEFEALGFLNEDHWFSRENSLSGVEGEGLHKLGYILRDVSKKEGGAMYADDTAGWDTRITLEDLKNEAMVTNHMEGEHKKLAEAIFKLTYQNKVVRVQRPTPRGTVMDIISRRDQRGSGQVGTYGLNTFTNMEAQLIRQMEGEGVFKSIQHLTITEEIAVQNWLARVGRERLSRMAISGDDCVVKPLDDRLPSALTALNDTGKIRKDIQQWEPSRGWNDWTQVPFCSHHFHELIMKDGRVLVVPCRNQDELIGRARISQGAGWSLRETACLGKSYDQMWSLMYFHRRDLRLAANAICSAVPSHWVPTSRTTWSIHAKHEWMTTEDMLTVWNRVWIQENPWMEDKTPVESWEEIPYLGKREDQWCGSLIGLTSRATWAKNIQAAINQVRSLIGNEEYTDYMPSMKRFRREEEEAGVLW
Photoreceptor-specific nuclear receptor, sequence (Q9Y5X4 whole entry, the tested form may be a part): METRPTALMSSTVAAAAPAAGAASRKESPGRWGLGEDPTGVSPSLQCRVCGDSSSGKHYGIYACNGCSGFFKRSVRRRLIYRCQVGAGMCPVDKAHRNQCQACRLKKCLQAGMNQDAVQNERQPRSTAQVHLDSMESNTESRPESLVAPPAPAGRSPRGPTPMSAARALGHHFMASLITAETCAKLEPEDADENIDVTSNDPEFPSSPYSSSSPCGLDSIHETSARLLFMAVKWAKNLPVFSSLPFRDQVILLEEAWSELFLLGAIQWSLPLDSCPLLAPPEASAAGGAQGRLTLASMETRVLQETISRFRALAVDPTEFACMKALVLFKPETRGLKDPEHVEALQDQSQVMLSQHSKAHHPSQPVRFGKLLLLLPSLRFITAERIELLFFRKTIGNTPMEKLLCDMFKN

O=C(C[C@H]1C[C@H](C(=O)N2CCOCC2)[C@@]2(CCC3CCCC3)c3[nH]c4cc(-c5ccco5)ccc4c3CCN2C1=O)NCCCn1ccnc1
AC50 [1]: 59.9 µM (active)

O=C(NCCc1ccc(Cl)cc1Cl)c1cc([N+](=O)[O-])cnc1O
AC50 [2]: 4.14 µM (active)
AC50 [3]: 61.9 µM (active)

CCOC(=O)c1c(-c2cccc3ccccc23)csc1NC(=O)C1C2CCC(O2)C1C(=O)O (stereo unspecified)
IC50 [4]: > 25 µM (active)

CCCCN(C)CCn1c(=S)[nH]c2ncccc2c1=O
AC50 [5]: 29.7 µM (active)

O=C(Nc1nc(-c2ccc(F)c(F)c2)cs1)c1ccc(OCC2CCCO2)cc1 (stereo unspecified)
IC50 [6]: > 80 µM (inactive)
IC50 [7]: > 80 µM (inactive)

NC(=O)CC(NC(=O)Cc1cccc2ccccc12)c1ccc(NCCOc2ccccc2)c([N+](=O)[O-])c1 (stereo unspecified)
AC50 [2]: 147 µM (active)
AC50 [3]: 22.9 µM (active)

CC(C)c1ccc(-c2csc(NC(=O)c3cccs3)c2C(=O)O)cc1
CC50 [8]: > 40 µM (active)
IC50 [9]: 9.22 µM (active)
IC50 [10]: 6.83 µM (active)
IC50 [11]: > 20 µM (inactive)
IC50 [12]: > 20 µM (inactive)
IC50 [13]: 39.9 µM (active)
EC50 [14]: 8.7 µM (active)
